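Dose response: 5 concentrations. Exposure: 48 h. Format: 96-well plates. Endpoint: linear interpolation; highest concentration if not reached. TGI denotes the concentration required for complete inhibition of growth.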
Columns and labels:
Test in all cases: NCI tumour cell line growth inhibition, 48 h
EKVX NSCLC = test system: EKVX NSCLC
CCRF-CEM leukemia = test system: CCRF-CEM leukemia
SR leukemia = test system: SR leukemia
OVCAR-5 ovarian = test system: OVCAR-5 ovarian
TK-10 renal = test system: TK-10 renal
A498 renal = test system: A498 renal
NCI-H460 lung = test system: NCI-H460 lung
U251 CNS = test system: U251 CNS
MOLT-4 leukemia = test system: MOLT-4 leukemia
SW-620 colon = test system: SW-620 colon
SNB-78 CNS = test system: SNB-78 CNS
LXFL 529 NSCLC = test system: LXFL 529 NSCLC
786-0 renal = test system: 786-0 renal
OVCAR-8 ovarian = test system: OVCAR-8 ovarian
SNB-75 CNS = test system: SNB-75 CNS
KM20L2 colon = test system: KM20L2 colon
HOP-62 NSCLC = test system: HOP-62 NSCLC
UO-31 renal = test system: UO-31 renal
HCC-2998 colon = test system: HCC-2998 colon
RPMI-8226 leukemia = test system: RPMI-8226 leukemia
NCI-H226 lung = test system: NCI-H226 lung
SNB-19 CNS = test system: SNB-19 CNS
OVCAR-4 ovarian = test system: OVCAR-4 ovarian
IGROV1 ovarian = test system: IGROV1 ovarian
M19-MEL melanoma = test system: M19-MEL melanoma
OVCAR-3 ovarian = test system: OVCAR-3 ovarian
KM12 colon = test system: KM12 colon
HOP-18 NSCLC = test system: HOP-18 NSCLC
ACHN renal = test system: ACHN renal
RXF-631 renal = test system: RXF-631 renal
DLD-1 colon = test system: DLD-1 colon
UACC-62 melanoma = test system: UACC-62 melanoma
SF-268 CNS = test system: SF-268 CNS
SF-539 CNS = test system: SF-539 CNS
DMS 114 small cell lung = test system: DMS 114 small cell lung
HCT-116 colon = test system: HCT-116 colon
SK-OV-3 ovarian = test system: SK-OV-3 ovarian
LOX IMVI melanoma = test system: LOX IMVI melanoma
UACC-257 melanoma = test system: UACC-257 melanoma
A549 NSCLC = test system: A549 NSCLC
MALME-3M melanoma = test system: MALME-3M melanoma
HT29 colon = test system: HT29 colon
XF 498 CNS = test system: XF 498 CNS
M14 melanoma = test system: M14 melanoma
NCI-H23 lung = test system: NCI-H23 lung
SF-295 CNS = test system: SF-295 CNS
SN12C renal = test system: SN12C renal
K-562 leukemia = test system: K-562 leukemia
SK-MEL-28 melanoma = test system: SK-MEL-28 melanoma
RXF 393 renal = test system: RXF 393 renal
SK-MEL-2 melanoma = test system: SK-MEL-2 melanoma
CAKI-1 renal = test system: CAKI-1 renal
NCI-H522 lung = test system: NCI-H522 lung
P388 leukemia = test system: P388 leukemia
DMS 273 small cell lung = test system: DMS 273 small cell lung
HCT-15 colon = test system: HCT-15 colon
P388/ADR leukemia = test system: P388/ADR leukemia
MCF7 breast = test system: MCF7 breast
SN12K1 renal = test system: SN12K1 renal
SK-MEL-5 melanoma = test system: SK-MEL-5 melanoma
NCI/ADR-RES ovarian = test system: NCI/ADR-RES ovarian
COLO 205 colon = test system: COLO 205 colon
HOP-92 NSCLC = test system: HOP-92 NSCLC
HL-60(TB) leukemia = test system: HL-60(TB) leukemia

Q: How did the TGI (EKVX NSCLC) turn out when CC1=CC(C)(c2c[nH]c3ccccc23)CC(C)(C)c2c1[nH]c1ccccc21 (stereo not given) was run?
A: 39.8 µM

Q: What about the TGI (CCRF-CEM leukemia) of the same molecule?
A: 31.7 µM

Q: And the TGI (SR leukemia)?
A: 32 µM

Q: And the TGI (OVCAR-5 ovarian)?
A: 36.4 µM

Q: What about the TGI (TK-10 renal) of the same molecule?
A: > 100 µM

Q: What about the TGI (A498 renal) of the same molecule?
A: 37.8 µM

Q: What about the TGI (NCI-H460 lung) of the same molecule?
A: 34.5 µM

Q: What about the TGI (U251 CNS) of the same molecule?
A: 32 µM

Q: What about the TGI (MOLT-4 leukemia) of the same molecule?
A: 27.6 µM

Q: What about the TGI (SW-620 colon) of the same molecule?
A: 32.1 µM

Q: And the TGI (SNB-78 CNS)?
A: > 100 µM

Q: And the TGI (LXFL 529 NSCLC)?
A: > 100 µM

Q: What about the TGI (786-0 renal) of the same molecule?
A: 27.1 µM

Q: What about the TGI (OVCAR-8 ovarian) of the same molecule?
A: 29.8 µM

Q: What about the TGI (SNB-75 CNS) of the same molecule?
A: 67.4 µM

Q: What about the TGI (KM20L2 colon) of the same molecule?
A: 31.4 µM

Q: What about the TGI (HOP-62 NSCLC) of the same molecule?
A: 79.7 µM

Q: What about the TGI (UO-31 renal) of the same molecule?
A: 27.3 µM

Q: And the TGI (HCC-2998 colon)?
A: 30.4 µM

Q: And the TGI (RPMI-8226 leukemia)?
A: 38.9 µM

Q: What about the TGI (NCI-H226 lung) of the same molecule?
A: 37.1 µM

Q: What about the TGI (SNB-19 CNS) of the same molecule?
A: 74.7 µM

Q: And the TGI (OVCAR-4 ovarian)?
A: 27.7 µM

Q: And the TGI (IGROV1 ovarian)?
A: 36 µM

Q: And the TGI (M19-MEL melanoma)?
A: 43.7 µM

Q: And the TGI (OVCAR-3 ovarian)?
A: 28.6 µM

Q: What about the TGI (KM12 colon) of the same molecule?
A: > 100 µM

Q: And the TGI (HOP-18 NSCLC)?
A: > 100 µM

Q: And the TGI (ACHN renal)?
A: 44.5 µM

Q: And the TGI (RXF-631 renal)?
A: 31.8 µM

Q: And the TGI (DLD-1 colon)?
A: 27.2 µM

Q: And the TGI (UACC-62 melanoma)?
A: 36.6 µM

Q: What about the TGI (SF-268 CNS) of the same molecule?
A: > 100 µM

Q: And the TGI (SF-539 CNS)?
A: > 100 µM

Q: And the TGI (DMS 114 small cell lung)?
A: 36.5 µM

Q: What about the TGI (HCT-116 colon) of the same molecule?
A: 26.7 µM

Q: What about the TGI (SK-OV-3 ovarian) of the same molecule?
A: 61.8 µM

Q: What about the TGI (LOX IMVI melanoma) of the same molecule?
A: 31.5 µM

Q: And the TGI (UACC-257 melanoma)?
A: 41.2 µM

Q: What about the TGI (A549 NSCLC) of the same molecule?
A: 28.3 µM

Q: What about the TGI (MALME-3M melanoma) of the same molecule?
A: 35 µM

Q: And the TGI (HT29 colon)?
A: 28.6 µM

Q: What about the TGI (XF 498 CNS) of the same molecule?
A: 72.1 µM

Q: And the TGI (M14 melanoma)?
A: 46.9 µM

Q: What about the TGI (NCI-H23 lung) of the same molecule?
A: 28.5 µM

Q: And the TGI (SF-295 CNS)?
A: 32.6 µM

Q: What about the TGI (SN12C renal) of the same molecule?
A: 28.5 µM

Q: And the TGI (K-562 leukemia)?
A: 53.9 µM

Q: What about the TGI (SK-MEL-28 melanoma) of the same molecule?
A: 30.1 µM

Q: And the TGI (RXF 393 renal)?
A: 26.6 µM

Q: How did the TGI (EKVX NSCLC) turn out when c1ccc2c(c1)OCCc1cn[nH]c1-2 was run?
A: > 100 µM

Q: And the TGI (CCRF-CEM leukemia)?
A: > 100 µM

Q: What about the TGI (OVCAR-5 ovarian) of the same molecule?
A: > 100 µM

Q: And the TGI (A498 renal)?
A: > 100 µM

Q: And the TGI (NCI-H460 lung)?
A: > 100 µM

Q: What about the TGI (U251 CNS) of the same molecule?
A: > 100 µM

Q: What about the TGI (MOLT-4 leukemia) of the same molecule?
A: > 100 µM

Q: And the TGI (SW-620 colon)?
A: > 100 µM

Q: And the TGI (SNB-78 CNS)?
A: > 100 µM

Q: And the TGI (SK-MEL-2 melanoma)?
A: > 100 µM

Q: And the TGI (CAKI-1 renal)?
A: 87.9 µM

Q: What about the TGI (NCI-H522 lung) of the same molecule?
A: > 100 µM

Q: And the TGI (P388 leukemia)?
A: > 100 µM

Q: What about the TGI (OVCAR-8 ovarian) of the same molecule?
A: > 100 µM

Q: And the TGI (SNB-75 CNS)?
A: > 92.5 µM

Q: What about the TGI (KM20L2 colon) of the same molecule?
A: > 100 µM

Q: What about the TGI (HOP-62 NSCLC) of the same molecule?
A: > 100 µM

Q: What about the TGI (UO-31 renal) of the same molecule?
A: > 100 µM

Q: And the TGI (HCC-2998 colon)?
A: > 100 µM

Q: And the TGI (NCI-H226 lung)?
A: 95.5 µM

Q: And the TGI (SNB-19 CNS)?
A: > 100 µM

Q: What about the TGI (OVCAR-4 ovarian) of the same molecule?
A: > 100 µM

Q: And the TGI (IGROV1 ovarian)?
A: > 100 µM

Q: And the TGI (OVCAR-3 ovarian)?
A: > 100 µM

Q: And the TGI (KM12 colon)?
A: > 100 µM

Q: And the TGI (DMS 273 small cell lung)?
A: > 100 µM

Q: What about the TGI (HCT-15 colon) of the same molecule?
A: > 100 µM

Q: And the TGI (HOP-18 NSCLC)?
A: > 100 µM

Q: And the TGI (DLD-1 colon)?
A: > 100 µM

Q: And the TGI (UACC-62 melanoma)?
A: > 100 µM

Q: And the TGI (P388/ADR leukemia)?
A: > 100 µM

Q: What about the TGI (SF-268 CNS) of the same molecule?
A: > 100 µM

Q: And the TGI (MCF7 breast)?
A: > 100 µM

Q: What about the TGI (SF-539 CNS) of the same molecule?
A: > 100 µM

Q: What about the TGI (DMS 114 small cell lung) of the same molecule?
A: > 100 µM

Q: What about the TGI (HCT-116 colon) of the same molecule?
A: > 100 µM

Q: And the TGI (SK-OV-3 ovarian)?
A: > 100 µM

Q: And the TGI (SN12K1 renal)?
A: > 100 µM

Q: And the TGI (LOX IMVI melanoma)?
A: > 100 µM

Q: What about the TGI (UACC-257 melanoma) of the same molecule?
A: > 100 µM

Q: What about the TGI (A549 NSCLC) of the same molecule?
A: > 100 µM

Q: What about the TGI (SK-MEL-5 melanoma) of the same molecule?
A: > 100 µM

Q: What about the TGI (MALME-3M melanoma) of the same molecule?
A: > 100 µM

Q: And the TGI (HT29 colon)?
A: > 100 µM

Q: What about the TGI (XF 498 CNS) of the same molecule?
A: > 100 µM

Q: And the TGI (NCI/ADR-RES ovarian)?
A: > 100 µM

Q: And the TGI (NCI-H23 lung)?
A: > 100 µM

Q: What about the TGI (COLO 205 colon) of the same molecule?
A: > 100 µM

Q: And the TGI (SF-295 CNS)?
A: > 100 µM

Q: What about the TGI (SN12C renal) of the same molecule?
A: > 100 µM

Q: What about the TGI (HOP-92 NSCLC) of the same molecule?
A: > 100 µM

Q: And the TGI (HL-60(TB) leukemia)?
A: > 100 µM

Q: And the TGI (K-562 leukemia)?
A: > 100 µM

Q: And the TGI (SK-MEL-28 melanoma)?
A: > 100 µM

Q: And the TGI (RXF 393 renal)?
A: > 100 µM

Reference: PubChem BioAssay (NCI)
